Source: patent US20250288561A1, “NEZULCITINIB FOR DELIVERY BY NEBULIZED ORAL INHALATION” (THERAVANCE BIOPHARMA R&D IP, LLC, priority 2022, published 2025)
Read-outs that look alike come from different tables or passages of the source.

Tests used:
[1] = Phase 1 open-label study: plasma PK of single inhaled nezulcitinib doses under supplemental oxygenation scenarios; type: in vivo, human; conditions: for AUC % extrap / CL/F / DN AUC0-inf / DN AUC0-t / DN Cmax / Kel / Tmax / AUC(0-inf) / Cmax / AUC(0-t) / Vd/F / half-life: plasma; for AUC % extrap / CL/F / DN AUC0-inf / DN AUC0-t / DN Cmax / Kel / AUC(0-inf) / Cmax / AUC(0-t) / Vd/F / half-life: arithmetic mean; for Tmax: median; for Vd/F: read-out: Vz/F; for half-life: read-out: t½ (converted)
Excerpt: Part A: assessed the plasma PK of nezulcitinib following single inhaled doses administered in the setting of various supplemental oxygenation scenarios in healthy participants.
This was a Phase 1, open-label, fixed-sequence, 4-period study to evaluate the PK and safety of single inhaled doses of nezulcitinib, administered under different supplemental oxygenation scenarios.
Participants received a single inhaled dose of nezulcitinib using a nebulizer device on Day 1 of each administration period, under different supplementary oxygenation conditions and under fasting conditions.
Administrations were as follows: • Administration A (test): 3 mg nezulcitinib delivered by nasal inhalation via the Aerogen Solo integrated with a high-flow nasal cannula circuit delivering supplemental oxygen at a flow rate of 30 L/min. • Administration B (reference): 3 mg nezulcitinib delivered by oral inhalation via the Aerogen Solo coupled with the Aerogen Ultra handheld device, in the presence of supplemental oxygen delivery via low-flow nasal cannula at 6 L/min. • Administration C (test): 3 mg nezulcitinib delivered by oral inhalation via the Aerogen Solo coupled with the Aerogen Ultra handheld device, in the presence of supplemental oxygen delivery via high-flow nasal cannula at a flow rate of 30 L/min. • Administration D1 (test): 3 mg nezulcitinib delivered by oral inhalation via the Aerogen Solo coupled with the Aerogen Ultra handheld device, in the presence of supplemental oxygen delivery via high-flow nasal cannula at a flow rate of 50 L/min. • Administration D2 (test): 9 mg nezulcitinib delivered by oral inhalation via the Aerogen Solo coupled with the Aerogen Ultra handheld device, in the presence of supplemental oxygen delivery via high-flow nasal cannula at a flow rate of 50 L/min.
Serial blood samples were collected prior to and until 48 hours following dosing on Day 1 of each period to determine the concentration of nezulcitinib in plasma.
The following non-compartmental PK parameters were calculated for nezulcitinib, as appropriate:
• AUC0-t: The area under the concentration time curve, from time 0 to the last observed non-zero concentration, as calculated by the linear trapezoidal method. • AUC0-24: The area under the concentration time curve, from time 0 to the 24 hour time point, as calculated by the linear trapezoidal method. • AUC0-inf: The area under the concentration time curve from time 0 extrapolated to infinity. AUC0-inf was calculated as the sum of AUC0-t plus the ratio of the last measurable plasma concentration to the elimination rate constant. • AUC % extrap: Percent of AUC0-inf extrapolated, represented as (1−AUC0-t/AUC0-inf)*100. • CL/F: Apparent total plasma clearance after oral (extravascular) administration, calculated as Dose/AUC0-inf. • Cmax: Maximum observed concentration. • Tmax: Time to reach Cmax. If the maximum value occurs at more than one time point, Tmax is defined as the first time point with this value. • Kel: Apparent first order terminal elimination rate constant calculated from a semi-log plot of the plasma concentration versus time curve. The parameter was calculated by linear least-squares regression analysis using the maximum number of points in the terminal log-linear phase (e.g., three or more non-zero plasma concentrations). • t1/2: Apparent first-order terminal elimination half-life was calculated as 0.693/Kel. • Vz/F: Apparent volume of distribution during the terminal elimination phase after oral (extravascular) administration, calculated as Dose/(AUC0-inf*Kel).

JAK1 = JAK1 (Homo sapiens, UniProt P23458); test: JAK enzyme inhibition; type: biochemical
JAK1, sequence (P23458 whole entry): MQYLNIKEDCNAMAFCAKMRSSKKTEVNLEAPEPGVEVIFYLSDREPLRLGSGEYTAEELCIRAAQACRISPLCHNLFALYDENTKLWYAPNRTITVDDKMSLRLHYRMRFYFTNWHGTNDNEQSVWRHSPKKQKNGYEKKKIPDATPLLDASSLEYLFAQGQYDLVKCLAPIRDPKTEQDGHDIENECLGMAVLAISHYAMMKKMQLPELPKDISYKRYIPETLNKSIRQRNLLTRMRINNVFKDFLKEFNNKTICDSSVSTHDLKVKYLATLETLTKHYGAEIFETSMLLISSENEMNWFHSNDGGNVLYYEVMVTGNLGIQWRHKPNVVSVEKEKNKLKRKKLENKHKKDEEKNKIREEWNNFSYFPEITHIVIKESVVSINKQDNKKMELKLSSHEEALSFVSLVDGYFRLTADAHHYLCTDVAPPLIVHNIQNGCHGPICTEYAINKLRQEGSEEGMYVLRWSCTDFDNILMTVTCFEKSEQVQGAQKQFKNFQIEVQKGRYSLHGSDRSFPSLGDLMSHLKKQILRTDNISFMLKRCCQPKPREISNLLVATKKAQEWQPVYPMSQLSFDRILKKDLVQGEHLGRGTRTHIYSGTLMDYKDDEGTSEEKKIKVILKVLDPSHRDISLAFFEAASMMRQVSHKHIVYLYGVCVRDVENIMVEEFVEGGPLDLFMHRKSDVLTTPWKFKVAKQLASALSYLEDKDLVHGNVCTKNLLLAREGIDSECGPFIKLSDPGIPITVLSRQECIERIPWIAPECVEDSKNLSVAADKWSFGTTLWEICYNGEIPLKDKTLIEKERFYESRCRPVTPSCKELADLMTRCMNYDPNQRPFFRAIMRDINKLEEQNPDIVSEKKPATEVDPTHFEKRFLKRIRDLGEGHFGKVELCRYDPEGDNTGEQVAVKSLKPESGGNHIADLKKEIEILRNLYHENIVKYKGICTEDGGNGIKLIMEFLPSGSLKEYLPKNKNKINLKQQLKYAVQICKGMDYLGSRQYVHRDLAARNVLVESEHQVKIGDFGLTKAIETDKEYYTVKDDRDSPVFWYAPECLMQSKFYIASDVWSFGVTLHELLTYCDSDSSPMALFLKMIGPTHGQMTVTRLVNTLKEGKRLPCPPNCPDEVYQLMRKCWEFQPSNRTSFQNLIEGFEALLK

[2] = Earlier phase 1 clinical trial: safety, tolerability, hematological and lipid changes; type: in vivo, human
Protocol: (§1) Compound 1 was evaluated in a phase 1 clinical trial and dosed in humans through nebulized inhalation at 1 mg, 3 mg, and 10 mg for up to 7 days. […] The pharmacokinetics of inhaled compound 1 are consistent with low plasma exposures after inhaled administration. […] Additionally, absolute NK cell counts were evaluated after multiple-dosing to assess the potential for systemic pharmacologic effects associated with JAK inhibition by compound 1. […] The lack of reduction in NK cell counts is also consistent with the lack of systemic JAK inhibition. […] Other systemically mediated hematological changes associated with JAK inhibition, including neutrophil and hemoglobin reductions as well as lipid changes, were not observed with inhaled administration of compound 1.
(§2) The selected dose of 3 mg in the present study was consistent with the dose in a recently completed Phase 2 study. In addition, the 3 mg dose ensured adequate characterization of the nezulcitinib PK profile. Dose levels up to 9 mg of nezulcitinib were also evaluated (Administration D2). This dose level was within the range of doses tested previously (up to 10 mg of nezulcitinib) in healthy participants and those with COVID-19 in previous clinical studies.

[3] = Earlier phase 1 clinical trial, nebulized inhalation: plasma pharmacokinetics; type: in vivo, human; conditions: for maximal plasma exposure, fold lower than the protein-adjusted JAK IC50: inhaled
Protocol: as §1, §2

[4] = Administration A: single 3 mg, nasal inhalation via high-flow nasal cannula circuit, oxygen 30 L/min
[5] = Administration B: single 3 mg, oral inhalation, low-flow nasal cannula oxygen 6 L/min
[6] = Administration C: single 3 mg, oral inhalation, high-flow nasal cannula oxygen 30 L/min
[7] = Administration D1: single 3 mg, oral inhalation, high-flow nasal cannula oxygen 50 L/min
[8] = Administration D2: single 9 mg, oral inhalation, high-flow nasal cannula oxygen 50 L/min
[9] = human, inhaled or intranasal, 3 mg, Administration A: single 3 mg, nasal inhalation via high-flow nasal cannula circuit, oxygen 30 L/min
[10] = human, inhaled, 3 mg, Administration B: single 3 mg, oral inhalation, low-flow nasal cannula oxygen 6 L/min
[11] = human, inhaled, 3 mg, Administration C: single 3 mg, oral inhalation, high-flow nasal cannula oxygen 30 L/min
[12] = human, inhaled, 3 mg, Administration D1: single 3 mg, oral inhalation, high-flow nasal cannula oxygen 50 L/min
[13] = human, inhaled, 9 mg, Administration D2: single 9 mg, oral inhalation, high-flow nasal cannula oxygen 50 L/min

CCc1cc(O)ccc1-c1ccc2c(-c3nc4c([nH]3)CN(C(C)C)[C@H](C(=O)N3CC(N(C)C)C3)C4)n[nH]c2c1 [Compound 1, (S)-(3-(dimethylamino)azetidin-1-yl)(2-(6-(2-ethyl-4-hydroxyphenyl)-1H-indazol-3-yl)-5-isopropyl-4,5,6,7-tetrahydro-3H-imidazo[4,5-c]pyridin-6-yl)methanone]
plasma concentrations, effect of increasing flow rate from 30 L/min (Administration C) to 50 L/min (Administration D1) ([1]; 3 mg oral inhalation): did not impact the plasma concentrations | plasma concentrations, Administration C compared to Administration A ([1]; 3 mg oral inhalation with high-flow 30 L/min vs 3 mg nasal through the high-flow circuit 30 L/min, FIG. 3): sustained increased plasma concentrations | AUC % extrap [1, 4]: 4.451% | CL/F [1, 4]: 526.8 L/h | DN AUC0-inf [1, 4]: 2.586 ± [ng*hr/mL]/mg | DN AUC0-t [1, 4]: 2.480 ± [ng*hr/mL]/mg | DN Cmax [1, 4]: 0.5610 ± [ng/mL]/mg | Kel [1, 4]: 0.07122 ± 1 h⁻¹ | Tmax [1, 4]: 1.000 h | AUC % extrap [1, 5]: 3.152% | CL/F [1, 5]: 287.0 L/h | DN AUC0-inf [1, 5]: 18.00 ± [ng*hr/mL]/mg | DN AUC0-t [1, 5]: 17.46 ± [ng*hr/mL]/mg | DN Cmax [1, 5]: 4.658 ± [ng/mL]/mg | Kel [1, 5]: 0.07667 ± 1 h⁻¹ | AUC % extrap [1, 6]: 3.898% | CL/F [1, 6]: 128.9 L/h | DN AUC0-inf [1, 6]: 18.24 ± [ng*hr/mL]/mg | DN AUC0-t [1, 6]: 17.69 ± [ng*hr/mL]/mg | DN Cmax [1, 6]: 4.725 ± [ng/mL]/mg | Kel [1, 6]: 0.04804 ± 1 h⁻¹ | AUC % extrap [1, 7]: 2.813% | CL/F [1, 7]: 146.9 L/h | DN AUC0-inf [1, 7]: 17.44 ± [ng*hr/mL]/mg | DN AUC0-t [1, 7]: 16.94 ± [ng*hr/mL]/mg | DN Cmax [1, 7]: 4.649 ± [ng/mL]/mg | Kel [1, 7]: 0.06152 ± 1 h⁻¹ | Tmax [1, 7]: 1.000 h | AUC % extrap [1, 8]: 2.727% | CL/F [1, 8]: 312.3 L/h | DN AUC0-inf [1, 8]: 16.89 ± [ng*hr/mL]/mg | DN AUC0-t [1, 8]: 16.53 ± [ng*hr/mL]/mg | DN Cmax [1, 8]: 4.858 ± [ng/mL]/mg | Kel [1, 8]: 0.05057 ± 1 h⁻¹ | Tmax ([1]; human, inhaled, Administration B: single 3 mg, oral inhalation, low-flow nasal cannula oxygen 6 L/min, read-out: Tmax): 1 h | Tmax ([1]; human, inhaled, Administration D2: single 9 mg, oral inhalation, high-flow nasal cannula oxygen 50 L/min, read-out: Tmax): 1 h | AUC(0-inf) [1, 9]: 7.76 ng·h/mL | Cmax [1, 9]: 1.68 ng/mL | AUC(0-t) ([1]; human, inhaled or intranasal, 3 mg, Administration A: single 3 mg, nasal inhalation via high-flow nasal cannula circuit, oxygen 30 L/min, read-out: AUC0-24): 7.06 ng·h/mL | AUC(0-t) ([1]; human, inhaled or intranasal, 3 mg, Administration A: single 3 mg, nasal inhalation via high-flow nasal cannula circuit, oxygen 30 L/min, read-out: AUC0-t): 7.44 ng·h/mL | Vd/F [1, 9]: 7400 L | half-life [1, 9]: 611 min | AUC(0-inf) [1, 10]: 54 ng·h/mL | Cmax [1, 10]: 14 ng/mL | AUC(0-t) ([1]; human, inhaled, 3 mg, Administration B: single 3 mg, oral inhalation, low-flow nasal cannula oxygen 6 L/min, read-out: AUC0-24): 49.1 ng·h/mL | AUC(0-t) ([1]; human, inhaled, 3 mg, Administration B: single 3 mg, oral inhalation, low-flow nasal cannula oxygen 6 L/min, read-out: AUC0-t): 52.4 ng·h/mL | Vd/F [1, 10]: 1770 L | half-life [1, 10]: 773 min | AUC(0-inf) [1, 11]: 54.7 ng·h/mL | Cmax [1, 11]: 14.2 ng/mL | AUC(0-t) ([1]; human, inhaled, 3 mg, Administration C: single 3 mg, oral inhalation, high-flow nasal cannula oxygen 30 L/min, read-out: AUC0-24): 49.9 ng·h/mL | AUC(0-t) ([1]; human, inhaled, 3 mg, Administration C: single 3 mg, oral inhalation, high-flow nasal cannula oxygen 30 L/min, read-out: AUC0-t): 53.1 ng·h/mL | Vd/F [1, 11]: 3920 L | half-life [1, 11]: 905 min | AUC(0-inf) [1, 12]: 52.3 ng·h/mL | Cmax [1, 12]: 13.9 ng/mL | AUC(0-t) ([1]; human, inhaled, 3 mg, Administration D1: single 3 mg, oral inhalation, high-flow nasal cannula oxygen 50 L/min, read-out: AUC0-24): 47.9 ng·h/mL | AUC(0-t) ([1]; human, inhaled, 3 mg, Administration D1: single 3 mg, oral inhalation, high-flow nasal cannula oxygen 50 L/min, read-out: AUC0-t): 50.8 ng·h/mL | Vd/F [1, 12]: 1780 L | half-life [1, 12]: 740 min | AUC(0-inf) [1, 13]: 152 ng·h/mL | Cmax [1, 13]: 43.7 ng/mL | AUC(0-t) ([1]; human, inhaled, 9 mg, Administration D2: single 9 mg, oral inhalation, high-flow nasal cannula oxygen 50 L/min, read-out: AUC0-24): 141 ng·h/mL | AUC(0-t) ([1]; human, inhaled, 9 mg, Administration D2: single 9 mg, oral inhalation, high-flow nasal cannula oxygen 50 L/min, read-out: AUC0-t): 149 ng·h/mL | Vd/F [1, 13]: 7310 L | half-life [1, 13]: 843 min | plasma concentration, 9 mg (Administration D2) vs 3 mg (Administration D1) ([1]; oral inhalation, high-flow 50 L/min, FIG. 6): approximately a dose-proportional increase in plasma concentration | inhibition of JAK1 (JAK1): potent inhibitor | neutrophil and hemoglobin reductions, lipid changes ([2]; inhaled administration): not observed | safety and tolerability ([2]; single and multiple doses of 1, 3, and 10 mg, healthy adult participants): safe and well tolerated | maximal plasma exposure, fold lower than the protein-adjusted JAK IC50 ([3]; dose level 3 mg): about 20 fold | maximal plasma exposure, fold lower than the protein-adjusted JAK IC50 ([3]; dose level 10 mg): about 7 fold | plasma Cmax relative to the binding-corrected JAK IC50 ([3]; nebulized inhalation at 1 mg, 3 mg and 10 mg for up to 7 days): well under the binding-corrected JAK IC50 | dose proportionality of systemic exposure (AUC0-24) and Cmax ([3]; single and multiple doses, 1 to 10 mg): increased in a dose proportional manner
